Results on one molecule are retold here after EPA's ToxValDB 9.5 (doi:10.2903/j.efsa.2009.297r).

One data set deals with Oryctolagus sp. As to conditions: developmental; development.
The conditions of data set [1]: reproductive.
The next data set concerns Canidae. As to conditions: chronic; duration: 1 years; oral; Dog Other; body weight.
Another data set has as its system Apis mellifera. The conditions noted are these: acute; dermal; mortality.
The test system of a further data set is Salmo trutta ssp. fario. The conditions noted are these: acute; duration: 96 hours; mortality.
For a further data set, the system named is Rattus norvegicus. As to conditions: oral.
A further data set concerns Oncorhynchus mykiss. As to conditions: chronic/long-term; duration: 28 days.
The subject of the next data set is Tagia sp. The conditions noted are these: mortality.
For the next data set, the system named is Adalia sp. As to conditions: not reported; reproduction.

In brackets after ≈: the same amount, converted by molar mass. Several values for one entry are separate records, joined by “and”; a condition that tells them apart may be missing. Equal values may be shown once.

As for `O=C1c2ccccc2C(=O)N1SC(Cl)(Cl)Cl` [Folpet], the no observed adverse effect level (NOAEL) in the data set on Oryctolagus sp. was 10 mg/kg-day and 20 mg/kg-day; in the data set with Canidae, 10 mg/kg-day; with Rattus norvegicus (chronic, duration: 2 years, diet, body weight) it was 10 mg/kg-day. In addition, the NOEC in [1] came to 1500 mg/kg; in the data set on Coturnix coturnix (reproduction developmental, reproduction), 78.3 mg/kg-day; in the data set on Anas platyrhynchos (reproductive), 90 mg/kg-day; with Tagia sp. (chronic/long-term), 5.18 mg/kg. The LC50 with Coturnix coturnix (acute, oral, diet, mortality) is more than 1130 mg/kg-day; in the data set with Salmo trutta ssp. fario, 0.098 mg/L (≈ 0.33 µM); with Anas platyrhynchos (short-term, oral, feed, mortality), more than 746 mg/kg-day; with Oncorhynchus mykiss it was 0.11 mg/L (≈ 0.371 µM); in the data set on Tagia sp. (acute, duration: 14 days), more than 1000 mg/kg. Also, the LD50 in the data set with Coturnix coturnix (acute, oral, mortality) is more than 2510 mg/kg; in the data set with Apis mellifera it was more than 200 µg/piece; in the data set on Rattus norvegicus (acute, mortality), more than 2000 mg/kg. Besides, the LEL in the data set with Adalia sp. was determined as 530 g/ha.

The term NOAEL denotes the highest tested level that showed no adverse finding.
